“Also recorded” adds a separate entry of the source.
Legend:
[1] = Body weight change from day -2 in LPS-induced lung inflammation model; format: in vivo, mice; details: vs vehicle disease control; for body weight change from day -2: 6 hours post-LPS
Text: (§1) All animals survived to study termination.
Body weight measurements were collected and the animals were euthanized for necropsy and terminal sample collection on day 0 or day 1.
The mice were weighed for randomization on study day −2 and were weighed again on day 0.

TNFα = experiment: Luminex cytokine levels in BAL: TNFα; format: in vivo, mice; details: vs vehicle disease control
Text: as §1
• 1. […] Seal the plate with a plate sealer.

IL-6 = experiment: Luminex cytokine levels in BAL: IL-6; details: vs vehicle disease control
[2] = test system: hospitalized patients with coronavirus disease 2019 (COVID-19); experiment: Randomized, double-blind, placebo-controlled clinical trial for prevention and treatment of ARDS; format: in vivo, human; details: 900 mg once daily for 14 days
Protocol: This example describes use of 5-(3-chlorophenyl)-3-hydroxypyridine-2-carbonyl]amino}acetic acid (vadadustat) in a multicenter, randomized, double-blind, placebo-controlled Bayesian adaptive clinical for the prevention and treatment of acute respiratory distress syndrome (ARDS) in hospitalized patients with coronavirus disease 2019 (COVID-19).
Following screening, patients are randomized in a 1:1 ratio to either vadadustat 900 mg or placebo. Randomization is stratified by site, and MSOFA score at baseline (<4 and >4).
A subject may receive vadadustat (e.g., 900 mg vadadustat as 6 tablets once daily) for 14 days and without regard for meals at approximately the same time each day. Tablets can be crushed using a pill crusher and administered to an intubated patient through a nasogastric tube.
Efficacy may also be assessed according to any of the following (including any combination thereof): • 1. The proportion of patients at day 14 who are dead (8) or hospitalized, on invasive mechanical ventilation or ECMO (7) or hospitalized, on non-invasive ventilation or high flow oxygen devices (6) on the NIAID-OS. • 2. Proportions of patients with a score of 0 at 14 days on the MSOFA (Modified Sequential Organ Failure Assessment) scale:
• 3. Average MSOFA scores at day 7 and day 14. • 4. Proportion of patients who develop ARDS or experienced increased ARDS severity from baseline based on the Berlin scale. • 5. Ventilator-free survival at day 7 and day 14. • 6. Overall survival at day 7 and day 14. • 7. Proportion of patients with hypotension (MAP (Mean Arterial Pressure)<70 mm Hg or requirement for inotropes or vasopressors to maintain blood pressure) at day 7 and day 14. • 8. Proportion of patients with acute kidney injury at day 7 and day 14. • 9. Time to hospital discharge.

[3] = 100 mg/kg PO single dose 1 h post-LPS, 8 hours post-LPS
[4] = 300 mg/kg PO single dose 1 h post-LPS, 8 hours post-LPS
[5] = 100 mg/kg PO QD days -2 to 0 (final dose 1 h pre-LPS), 6 hours post-LPS
[6] = 100 mg/kg PO QD days -2 to 0 (final dose 7 h post-LPS), 24 hours post-LPS
[7] = day 7 and day 14, compared to placebo

O=C(O)CNC(=O)c1ncc(-c2cccc(Cl)c2)cc1O [Compound 1, {[5-(3-chlorophenyl)-3-hydroxypyridine-2-carbonyl]amino}acetic acid]
absolute body weight change ([1]; 100 mg/kg PO QD days -2 to 0 (final dose 7 h post-LPS, 4 doses), 24 hours post-LPS): did not differ statistically | absolute body weight change [1, 3]: no significant differences | body weight change from day -2 ([1]; 300 mg/kg PO QD days -2 to 0 (final dose 1 h pre-LPS)): Significantly increased body weight loss; also recorded: statistically significant absolute weight loss | absolute body weight change ([1]; 300 mg/kg PO QD days -2 to 0 (final dose 7 h post-LPS, 4 doses), 24 hours post-LPS): did not differ statistically | absolute body weight change [1, 4]: no significant differences | TNFα levels in BAL fluids (TNFα; [5]): did not differ statistically | TNFα levels in BAL fluids (TNFα; [6]): Significantly increased; also recorded: significant increases | TNFα levels in BAL fluids (TNFα; [3]): decrease in IL-6 and TNFα levels at 8 hours post-LPS compared to vehicle disease control, though not statistically significant; also recorded: no significant differences | TNFα levels in BAL fluids (TNFα; [4]): decrease in IL-6 and TNFα levels at 8 hours post-LPS compared to vehicle disease control, though not statistically significant; also recorded: no significant differences | IL-6 levels in BAL fluids (IL-6; [5]): decrease in IL-6 levels at 6 hours post-LPS compared to vehicle disease control, though not statistically significant; also recorded: did not differ statistically | IL-6 levels in BAL fluids (IL-6; [6]): Significantly increased; also recorded: significant increases | IL-6 levels in BAL fluids (IL-6; [3]): decrease in IL-6 and TNFα levels at 8 hours post-LPS compared to vehicle disease control, though not statistically significant; also recorded: no significant differences | IL-6 levels in BAL fluids (IL-6; 300 mg/kg PO QD days -2 to 0 (final dose 1 h pre-LPS), 6 hours post-LPS): decrease in IL-6 levels at 6 hours post-LPS compared to vehicle disease control, though not statistically significant | IL-6 levels in BAL fluids (IL-6; [4]): decrease in IL-6 and TNFα levels at 8 hours post-LPS compared to vehicle disease control, though not statistically significant; also recorded: no significant differences | proportions of patients with a score of 0 on the MSOFA ([2]; at 14 days, compared to placebo): an increase | proportion of patients who develop ARDS or experienced increased ARDS severity from baseline based on the Berlin scale ([2]; compared to placebo): a lower or a reduction | average MSOFA scores [2, 7]: a lower or a reduction | overall survival [2, 7]: a greater or an increase | proportion of patients with hypotension (MAP <70 mm Hg or requirement for inotropes or vasopressors) [2, 7]: a lower or a reduction | ventilator-free survival [2, 7]: a greater or an increase | proportion of patients with acute kidney injury ([2]; day 7 and day 14, versus placebo): a lower or a reduction | proportion of patients who are dead (8), on invasive mechanical ventilation or ECMO (7) or on non-invasive ventilation or high flow oxygen devices (6) on the NIAID-OS ([2]; day 14, compared to placebo): a lower or a reduction | time to hospital discharge ([2]; versus placebo): a shorter or a reduction

C[C@@H]1C[C@H]2[C@@H]3CCC4=CC(=O)C=C[C@]4(C)[C@@]3(F)[C@@H](O)C[C@]2(C)[C@@]1(O)C(=O)CO [dexamethasone, reference compound]
body weight change from day -2 ([1]; 3 mg/kg PO 1x 1 h pre-LPS): did not differ statistically
